Reference: ChEMBL document CHEMBL4725301, “Discovery of a novel 9-position modified second-generation anti-HCV candidate via bioconversion and semi-synthesis of FR901459” (Bioorg Med Chem Lett, 2020)
Converted amounts (≈) assume the structure as drawn.

How the values were obtained:
[1] = Aqueous solubility of the compound in JP2 fluid at pH 6.8 by disintegration test; assay type: physicochemical
[2] = Oral bioavailability in rat; assay type: ADME, organism-based; conditions: in vivo
[3] = AUC (0 to 24 hrs) in po dosed rat; assay type: ADME, organism-based; parameters: time < 24 hr, route oral; conditions: in vivo
[4] = Inhibition of cyclophilin (unknown origin) assessed as inhibition of HCV FLR1 subgenomic viral replicon replication in presence of 50% human serum albumin by luciferase reporter gene assay
[5] = Inhibition of cyclophilin (unknown origin) assessed as inhibition of HCV FLR1 subgenomic viral replicon replication in presence of 10% FBS by luciferase reporter gene assay; parameters: species or system Homo sapiens
Splenocyte = test: Immunosuppressive activity in mouse splenocytes assessed as inhibition of concanavalinA-induced cell proliferation; assay type: cell-based
[6] = Inhibition of cyclophilin (unknown origin) assessed as inhibition of HCV #50-1 subgenomic viral replicon replication in presence of 5% FBS; parameters: species or system Homo sapiens
[7] = Inhibition of cyclophilin (unknown origin) assessed as inhibition of HCV #50-1 subgenomic viral replicon replication in presence of 50% human serum albumin
Hepatitis C virus = test: Antiviral activity against Hepatitis C virus genotype 1a infected in humanized liver SCID-Alb/uPA chimeric mouse assessed as log reduction in serum HCV RNA level at 15 mg/kg, po administered via gavage bid for 14 days cotreated with interferon-alfa2b at 400 U/g, sc administered qd measured for 7 days follow-up period without compound administration post-last dose; assay type: functional, Hepacivirus hominis, subtype 1a; conditions: time 14 day

Row | solubility [1] [µg/mL] | bioavailability [2] [%] | AUC(0-t) at 24 h [3] [ng·h/mL] | EC50 [4] [µg/mL] | EC50 [5] [µg/mL] | EC50 [6] [µg/mL] | EC50 [7] [µg/mL] | SMILES | IC50 (Splenocyte) [µg/mL] | log(activity) (Hepatitis C virus)
1 | – | – | – | – | – | 0.22 | – | C/C=C/C[C@@H](C)[C@@H](O)[C@H]1C(=O)N[C@@H]([C@@H](C)O)C(=O)N(C)CC(=O)N(C)[C@@H](CC(C)C)C(=O)N[C@@H](CC(C)C)C(=O)N(C)[C@@H](CC(C)C)C(=O)N[C@@H](C)C(=O)N[C@H](C)C(=O)N[C@@H](C[C@H](C)CN2CCOCC2)C(=O)N[C@@H](CC(C)C)C(=O)N(C)[C@@H](C(C)C)C(=O)N1C | 0.12 (≈ 0.093 µM) | –
2 | – | – | – | – | – | 0.097 | 0.55 | C/C=C/C[C@@H](C)[C@@H](O)[C@H]1C(=O)N[C@@H]([C@@H](C)O)C(=O)N(C)CC(=O)N(C)[C@@H](CC(C)C)C(=O)N[C@@H](CC(C)C)C(=O)N(C)[C@@H](CC(C)C)C(=O)N[C@@H](C)C(=O)N[C@H](C)C(=O)N[C@@H](C[C@H](C)COC(=O)NCCOC)C(=O)N[C@@H](CC(C)C)C(=O)N(C)[C@@H](C(C)C)C(=O)N1C | 0.75 (≈ 0.567 µM) | –
3 | – | – | – | – | – | 0.16 | 0.22 | C/C=C/C[C@@H](C)[C@@H](O)[C@H]1C(=O)N[C@@H]([C@@H](C)O)C(=O)N(C)CC(=O)N(C)[C@@H](CC(C)C)C(=O)N[C@@H](CC(C)C)C(=O)N(C)[C@@H](CC(C)C)C(=O)N[C@@H](C)C(=O)N[C@H](C)C(=O)N[C@@H](C[C@H](C)COC(=O)N2CCN(C)CC2)C(=O)N[C@@H](CC(C)C)C(=O)N(C)[C@@H](C(C)C)C(=O)N1C | 1.9 (≈ 1.41 µM) | –
4 | – | – | – | – | – | 0.85 | 2.4 | C/C=C/C[C@@H](C)[C@@H](O)[C@H]1C(=O)N[C@@H]([C@@H](C)O)C(=O)N(C)CC(=O)N(C)[C@@H](CC(C)C)C(=O)N[C@@H](CC(C)C)C(=O)N(C)[C@@H](CC(C)C)C(=O)N[C@@H](C)C(=O)N[C@H](C)C(=O)N[C@@H](C[C@H](C)CO)C(=O)N[C@@H](CC(C)C)C(=O)N(C)[C@@H](C(C)C)C(=O)N1C | 0.28 (≈ 0.229 µM) | –
5 | – | – | – | – | – | 0.099 | 0.56 | C/C=C/C[C@@H](C)[C@@H](O)[C@H]1C(=O)N[C@@H]([C@@H](C)O)C(=O)N(C)CC(=O)N(C)[C@@H](CC(C)C)C(=O)N[C@@H](CC(C)C)C(=O)N(C)[C@@H](CC(C)C)C(=O)N[C@@H](C)C(=O)N[C@H](C)C(=O)N[C@@H](C[C@H](C)COCC(=O)N2CCOCC2)C(=O)N[C@@H](CC(C)C)C(=O)N(C)[C@@H](C(C)C)C(=O)N1C | 0.92 (≈ 0.683 µM) | –

Second part, the compound before the results:

Row | SMILES | solubility [1] [µg/mL] | bioavailability [2] [%] | AUC(0-t) at 24 h [3] [ng·h/mL] | EC50 [4] [µg/mL] | EC50 [5] [µg/mL] | EC50 [6] [µg/mL] | EC50 [7] [µg/mL] | IC50 (Splenocyte) [µg/mL] | log(activity) (Hepatitis C virus)
6 | C/C=C/C[C@@H](C)[C@@H](O)[C@H]1C(=O)N[C@@H]([C@@H](C)O)C(=O)N(C)[C@H](C)C(=O)N(C)[C@@H]([C@@H](C)OC)C(=O)N[C@@H](CC(C)C)C(=O)N(C)[C@@H](CC(C)C)C(=O)N[C@@H](C)C(=O)N[C@H](C)C(=O)N[C@@H](CC(C)C)C(=O)N[C@@H](CC(C)C)C(=O)N(C)[C@@H](C(C)C)C(=O)N1C | 117 (≈ 95.9 µM) | 36 | 16100 | – | – | – | – | – | –
7 | C/C=C/C[C@@H](C)[C@@H](O)[C@H]1C(=O)N[C@@H]([C@@H](C)O)C(=O)N(C)[C@H](COC)C(=O)N(C)[C@@H](CC(C)C)C(=O)N[C@@H](CC(C)C)C(=O)N(C)[C@@H](CC(C)C)C(=O)N[C@@H](C)C(=O)N[C@H](C)C(=O)N[C@@H](C[C@H](C)CN2CCOCC2)C(=O)N[C@@H](CC(C)C)C(=O)N(C)[C@@H](C(C)C)C(=O)N1C | – | – | – | 0.25 | 0.11 | – | – | – | –
8 | C/C=C/C[C@@H](C)[C@@H](O)[C@H]1C(=O)N[C@@H]([C@@H](C)O)C(=O)N(C)CC(=O)N(C)[C@@H](CC(C)C)C(=O)N[C@@H](CC(C)C)C(=O)N(C)[C@@H](CC(C)C)C(=O)N[C@@H](C)C(=O)N[C@H](C)C(=O)N[C@@H](CC(C)C)C(=O)N[C@@H](CC(C)C)C(=O)N(C)[C@@H](C(C)C)C(=O)N1C | – | – | – | – | – | 0.096 | 3.7 | 0.026 (≈ 0.0216 µM) | –
9 | C/C=C/C[C@@H](C)[C@@H](O)[C@H]1C(=O)N[C@@H]([C@@H](C)O)C(=O)N(C)[C@H](COC)C(=O)N(C)[C@@H](CC(C)C)C(=O)N[C@@H](CC(C)C)C(=O)N(C)[C@@H](CC(C)C)C(=O)N[C@@H](C)C(=O)N[C@H](C)C(=O)N[C@@H](C[C@H](C)COC(=O)N2CCO[C@@H](COC)C2)C(=O)N[C@@H](CC(C)C)C(=O)N(C)[C@@H](C(C)C)C(=O)N1C | 73 (≈ 51.3 µM) | 12.9 | 12400 | 0.064 | 0.058 | – | – | 0.88 (≈ 0.619 µM) | –
10 | C/C=C/C[C@@H](C)[C@@H](O)[C@H]1C(=O)N[C@@H]([C@@H](C)O)C(=O)N(C)[C@H](COC)C(=O)N(C)[C@@H](CC(C)C)C(=O)N[C@@H](CC(C)C)C(=O)N(C)[C@@H](CC(C)C)C(=O)N[C@@H](C)C(=O)N[C@H](C)C(=O)N[C@@H](C[C@H](C)COC(=O)N(C)CCOC)C(=O)N[C@@H](CC(C)C)C(=O)N(C)[C@@H](C(C)C)C(=O)N1C | – | – | – | 0.097 | 0.06 | – | – | 0.85 (≈ 0.616 µM) | –
11 | C/C=C/C[C@@H](C)[C@@H](O)[C@H]1C(=O)N[C@@H]([C@@H](C)O)C(=O)N(C)[C@H](COC)C(=O)N(C)[C@@H](CC(C)C)C(=O)N[C@@H](CC(C)C)C(=O)N(C)[C@@H](CC(C)C)C(=O)N[C@@H](C)C(=O)N[C@H](C)C(=O)N[C@@H](C[C@H](C)CN2CCOC(COC)(COC)C2)C(=O)N[C@@H](CC(C)C)C(=O)N(C)[C@@H](C(C)C)C(=O)N1C | 54 (≈ 38 µM) | 28.3 | 16900 | 0.1 | 0.063 | – | – | 1.7 (≈ 1.2 µM) | 2
